Tested on: adult subjects with schizophrenia
Test: Adverse events (TEAE, SAE, discontinuation, EPS-related TEAE, anticholinergic use), Clinical Study One
Format: in vivo, human
Experimental: METHODOLOGY: This was a randomized, double-blind, fixed-dose, placebo-controlled, risperidone-referenced, parallel group, multi-center study in adult subjects with schizophrenia. There were five treatment groups in this study. […] Study medication was administered once daily. After Baseline measurements were performed, the titration phase was begun. Bifeprunox treated subjects were titrated up to 5 mg, 10 mg or 20 mg according to a standardized titration schedule (Day 1: 0.125 mg, Day 2: 0.25 mg, Day 3: 0.5 mg, Day 4: 1.0 mg, Day 5: 2.0 mg, Day 6: 5.0 mg, Day 7: 10.0 mg, Day 8: 20 mg).

**Q.** O=c1[nH]c2cccc(N3CCN(Cc4cccc(-c5ccccc5)c4)CC3)c2o1 [Bifeprunox, 7-[4-([1,1′-biphenyl]-3-ylmethyl)-1-piperazinyl]-2(3H)-benzoxazolone] was tested. Which “TEAE Akathisia, %” value (5 mg, Safety Population) did it give?
**A.** (<1%)

**Q.** What about the “TEAE Benign Skin Neoplasm Nos, %” value (5 mg, Safety Population) of the same compound?
**A.** (<1%)

**Q.** And the “TEAE Muscle Stiffness, %” value (5 mg, Safety Population)?
**A.** (<1%)

**Q.** And the “TEAE Muscle Tightness, %” value (5 mg, Safety Population)?
**A.** (<1%)

**Q.** What about the “TEAE Muscle Twitching, %” value (5 mg, Safety Population) of the same compound?
**A.** (2%)

**Q.** And the “TEAE NEOPLASMS BENIGN, MALIGNANT AND UNSPECIFIED (INCL CYSTS AND POLYPS), %” value (5 mg, Safety Population)?
**A.** (2%)

**Q.** And the “TEAE NERVOUS SYSTEM DISORDERS, %” value (5 mg, Safety Population)?
**A.** (48%)

**Q.** What about the “TEAE Neck Pain, %” value (5 mg, Safety Population) of the same compound?
**A.** (<1%)

**Q.** What about the “TEAE Pain in Jaw, %” value (5 mg, Safety Population) of the same compound?
**A.** (<1%)

**Q.** What about the “TEAE Pain in Limb, %” value (5 mg, Safety Population) of the same compound?
**A.** (<1%)

**Q.** What about the “TEAE Skin Papilloma, %” value (5 mg, Safety Population) of the same compound?
**A.** (<1%)

**Q.** What about the “TEAE Akathisia, %” value (10 mg, Safety Population) of the same compound?
**A.** (2%)

**Q.** And the “TEAE Muscle Stiffness, %” value (10 mg, Safety Population)?
**A.** (<1%)

**Q.** And the “TEAE Muscle Twitching, %” value (10 mg, Safety Population)?
**A.** (<1%)

**Q.** What about the “TEAE Musculoskeletal Discomfort, %” value (10 mg, Safety Population) of the same compound?
**A.** (<1%)

**Q.** And the “TEAE Myalgia, %” value (10 mg, Safety Population)?
**A.** (<1%)

**Q.** What about the “TEAE NERVOUS SYSTEM DISORDERS, %” value (10 mg, Safety Population) of the same compound?
**A.** (50%)

**Q.** What about the “TEAE Neck Pain, %” value (10 mg, Safety Population) of the same compound?
**A.** (3%)

**Q.** And the “TEAE Pain in Jaw, %” value (10 mg, Safety Population)?
**A.** (<1%)

**Q.** And the “TEAE Pain in Limb, %” value (10 mg, Safety Population)?
**A.** (2%)

**Q.** What about the “TEAE Akathisia, %” value (20 mg, Safety Population) of the same compound?
**A.** (3%)

**Q.** And the “TEAE Muscle Spasms, %” value (20 mg, Safety Population)?
**A.** (2%)

**Q.** And the “TEAE Muscle Twitching, %” value (20 mg, Safety Population)?
**A.** (<1%)

**Q.** And the “TEAE Myalgia, %” value (20 mg, Safety Population)?
**A.** (<1%)

**Q.** What about the “TEAE NERVOUS SYSTEM DISORDERS, %” value (20 mg, Safety Population) of the same compound?
**A.** (43%)

**Q.** What about the “TEAE Neck Pain, %” value (20 mg, Safety Population) of the same compound?
**A.** (2%)

**Q.** What about the “TEAE Pain in Limb, %” value (20 mg, Safety Population) of the same compound?
**A.** (3%)

**Q.** And the “TEAE Sensation of Heaviness, %” value (20 mg, Safety Population)?
**A.** (<1%)

**Q.** And the “Acute Psychosis, %” value (BX 5 mg)?
**A.** (<1%)

**Q.** What about the “Aggression, %” value (BX 5 mg) of the same compound?
**A.** (<1%)

**Q.** What about the “Agitation Aggravated, %” value (BX 5 mg) of the same compound?
**A.** (4%)

**Q.** What about the “Agitation, %” value (BX 5 mg) of the same compound?
**A.** (11%)

**Q.** What about the “Anxiety Aggravated, %” value (BX 5 mg) of the same compound?
**A.** (3%)

**Q.** What about the “Anxiety, %” value (BX 5 mg) of the same compound?
**A.** (5%)

**Q.** What about the “Confusion, %” value (BX 5 mg) of the same compound?
**A.** (<1%)

**Q.** What about the “DIZZINESS, %” value (BX 5 mg) of the same compound?
**A.** (14%)

**Q.** What about the “DYSKINESIA, %” value (BX 5 mg) of the same compound?
**A.** (<1%)

**Q.** What about the “EXTRAPYRAMIDAL DISORDER, %” value (BX 5 mg) of the same compound?
**A.** (1%)

**Q.** What about the “Gait Abnormal Nos, %” value (BX 5 mg) of the same compound?
**A.** (<1%)

**Q.** What about the “Headache Nos, %” value (BX 5 mg) of the same compound?
**A.** (30%)

**Q.** What about the “PSYCHIATRIC DISORDERS, %” value (BX 5 mg) of the same compound?
**A.** (41%)

**Q.** What about the “Parkinsonian Rest Tremor, %” value (BX 5 mg) of the same compound?
**A.** (<1%)

**Q.** What about the “SEDATION, %” value (BX 5 mg) of the same compound?
**A.** (5%)

**Q.** And the “SOMNOLENCE, %” value (BX 5 mg)?
**A.** (3%)

**Q.** What about the “Syncope, %” value (BX 5 mg) of the same compound?
**A.** (<1%)

**Q.** And the “TREMOR, %” value (BX 5 mg)?
**A.** (3%)

**Q.** What about the “Trismus, %” value (BX 5 mg) of the same compound?
**A.** (<1%)

**Q.** What about the “Agitation Aggravated, %” value (BX 10 mg) of the same compound?
**A.** (4%)

**Q.** What about the “Agitation, %” value (BX 10 mg) of the same compound?
**A.** (9%)

**Q.** What about the “Anxiety Aggravated, %” value (BX 10 mg) of the same compound?
**A.** (3%)

**Q.** And the “Anxiety, %” value (BX 10 mg)?
**A.** (10%)

**Q.** What about the “DIZZINESS, %” value (BX 10 mg) of the same compound?
**A.** (10%)

**Q.** What about the “DYSKINESIA, %” value (BX 10 mg) of the same compound?
**A.** (<1%)

**Q.** What about the “Gait Abnormal Nos, %” value (BX 10 mg) of the same compound?
**A.** (2%)

**Q.** What about the “Headache Nos, %” value (BX 10 mg) of the same compound?
**A.** (35%)

**Q.** What about the “Hyperactivity Syndrome Aggravated, %” value (BX 10 mg) of the same compound?
**A.** (<1%)

**Q.** What about the “Loss of Propriception, %” value (BX 10 mg) of the same compound?
**A.** (<1%)

**Q.** And the “Migraine Nos, %” value (BX 10 mg)?
**A.** (<1%)

**Q.** And the “PSYCHIATRIC DISORDERS, %” value (BX 10 mg)?
**A.** (32%)

**Q.** What about the “SEDATION, %” value (BX 10 mg) of the same compound?
**A.** (8%)

**Q.** What about the “SOMNOLENCE, %” value (BX 10 mg) of the same compound?
**A.** (2%)

**Q.** And the “Syncope, %” value (BX 10 mg)?
**A.** (3%)

**Q.** And the “TARDIVE DYSKINESIA, %” value (BX 10 mg)?
**A.** (<1%)

**Q.** And the “Adjustment Disorder Nos, %” value (BX 20 mg)?
**A.** (<1%)

**Q.** What about the “Affect Lability, %” value (BX 20 mg) of the same compound?
**A.** (<1%)

**Q.** And the “Aggression, %” value (BX 20 mg)?
**A.** (<1%)

**Q.** And the “Agitation Aggravated, %” value (BX 20 mg)?
**A.** (<1%)

**Q.** What about the “Agitation, %” value (BX 20 mg) of the same compound?
**A.** (11%)

**Q.** What about the “Anxiety Aggravated, %” value (BX 20 mg) of the same compound?
**A.** (2%)

**Q.** And the “Anxiety, %” value (BX 20 mg)?
**A.** (6%)

**Q.** And the “Bruxism, %” value (BX 20 mg)?
**A.** (<1%)

**Q.** What about the “Confusion, %” value (BX 20 mg) of the same compound?
**A.** (<1%)

**Q.** And the “DIZZINESS, %” value (BX 20 mg)?
**A.** (7%)

**Q.** What about the “DYSARTHRIA, %” value (BX 20 mg) of the same compound?
**A.** (<1%)

**Q.** What about the “Disturbance in Attention, %” value (BX 20 mg) of the same compound?
**A.** (<1%)

**Q.** And the “Dystonia, %” value (BX 20 mg)?
**A.** (<1%)

**Q.** And the “EXTRAPYRAMIDAL DISORDER, %” value (BX 20 mg)?
**A.** (2%)

**Q.** And the “Headache Nos, %” value (BX 20 mg)?
**A.** (25%)

**Q.** What about the “Hypoaesthesia, %” value (BX 20 mg) of the same compound?
**A.** (<1%)

**Q.** What about the “Memory Impairment, %” value (BX 20 mg) of the same compound?
**A.** (3%)

**Q.** What about the “Oculogyric Crisis, %” value (BX 20 mg) of the same compound?
**A.** (<1%)

**Q.** And the “PSYCHIATRIC DISORDERS, %” value (BX 20 mg)?
**A.** (40%)

**Q.** And the “Parkinsonism, %” value (BX 20 mg)?
**A.** (<1%)

**Q.** And the “SEDATION, %” value (BX 20 mg)?
**A.** (9%)

**Q.** What about the “SOMNOLENCE, %” value (BX 20 mg) of the same compound?
**A.** (5%)

**Q.** And the “Syncope, %” value (BX 20 mg)?
**A.** (2%)

Source: patent US20090068290A1, “BIFEPRUNOX DOSES FOR TREATING SCHIZOPHRENIA” (priority 2006, published 2009)
